According to PubChem BioAssay AID248 (DTP/NCI, 2004):
“And” between values parts separate entries of the source, which are not always exact repeats. Equal entries are not always repeated. Inconclusive results and toxic doses are left out. Cut-off read from the data, not from the text of the source: active = T/C of 150% or more; inactive = T/C below 125%.

Tested on: L1210 leukemia ip in BDF1 mice, survival T/C
Test: NCI In Vivo Anticancer Drug Screen. Data for tumor model L1210 Leukemia (intraperitoneal) in B6D2F1 (BDF1) mice
Details: endpoint: mean survival time, higher = longer survival
How it was run: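 Mice bearing the transplanted tumor received compound or vehicle. Survival of the treated group was divided by that of the vehicle-treated control group to give the ratio.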

[1] = dose: 100.0 mg/kg/injection, schedule: Q04DX002 (ip), vehicle: Klucel (hydroxypropylcellulose) (HPC)
[2] = dose: 200.0 mg/kg/injection, schedule: Q04DX002 (ip), vehicle: Klucel (hydroxypropylcellulose) (HPC)
[3] = dose: 400.0 mg/kg/injection, schedule: Q04DX002 (ip), vehicle: Klucel (hydroxypropylcellulose) (HPC)
[4] = dose: 100.0 mg/kg/injection, schedule: Q01DX009 (ip), vehicle: saline with Tween-80
[5] = dose: 200.0 mg/kg/injection, schedule: Q01DX009 (ip), vehicle: saline with Tween-80
[6] = dose: 400.0 mg/kg/injection, schedule: Q04DX003 (ip), vehicle: saline with Tween-80
[7] = dose: 100.0 mg/kg/injection, schedule: Q01DX001 (ip), vehicle: saline
[8] = dose: 200.0 mg/kg/injection, schedule: Q01DX001 (ip), vehicle: saline
[9] = dose: 100.0 mg/kg/injection, schedule: Q01DX009 (ip), vehicle: Klucel (hydroxypropylcellulose) (HPC)
[10] = dose: 400.0 mg/kg/injection, schedule: Q01DX001 (ip), vehicle: saline

Measured: T/C

COC1N(C2CC(O)C(CO)O2)C(=O)NC(=O)C1(F)Br (stereo unspecified)
inactive: dose: 5.0 mg/kg/injection, schedule: Q01DX009 (ip), vehicle: saline 123 % of control | dose: 10.0 mg/kg/injection, schedule: Q01DX009 (ip), vehicle: saline 112 % of control | dose: 20.0 mg/kg/injection, schedule: Q01DX009 (ip), vehicle: saline 122 % of control | dose: 20.0 mg/kg/injection, schedule: Q04DX003 (ip), vehicle: saline 105 % of control | dose: 40.0 mg/kg/injection, schedule: Q04DX003 (ip), vehicle: saline 102 % of control | dose: 50.0 mg/kg/injection, schedule: Q01DX009 (ip), vehicle: saline 103 % of control | dose: 80.0 mg/kg/injection, schedule: Q04DX003 (ip), vehicle: saline 117 % of control | dose: 100.0 mg/kg/injection, schedule: Q01DX009 (ip), vehicle: saline 98 % of control | dose: 160.0 mg/kg/injection, schedule: Q04DX003 (ip), vehicle: saline 108 % of control | dose: 200.0 mg/kg/injection, schedule: Q01DX009 (ip), vehicle: saline 102 % of control | dose: 400.0 mg/kg/injection, schedule: Q01DX009 (ip), vehicle: saline 94 % of control

CC(=O)n1c(O)c(N=Nc2ccc([N+](=O)[O-])cc2[N+](=O)[O-])c2cc(Br)ccc21
inactive: [1] 92 % of control | [2] 92 % of control | [3] 92 % of control

ClC(CCC(Cl)c1ccccc1)c1ccccc1 (stereo unspecified)
inactive: [1] 101 % of control | [2] 104 % of control | [3] 101 % of control

CCCOP(=S)(N1CC1)N1CC1
inactive: dose: 44.0 mg/kg/injection, schedule: Q01DX001 (ip), vehicle: saline 114 % of control

COC1OC(CN2CC2)C2OC(C)(C)OC12 (stereo unspecified)
inactive: dose: 75.0 mg/kg/injection, schedule: Q01DX001 (ip), vehicle: carboxymethylcellulose (CMC) 102 % of control

CCc1c(Nc2ccc(Cl)c(Cl)c2)nc(N)[nH]c1=O
inactive: dose: 100.0 mg/kg/injection, schedule: Q01DX Z (ip), vehicle: methylcellulose (MC) 99 % of control | dose: 200.0 mg/kg/injection, schedule: Q01DX Z (ip), vehicle: methylcellulose (MC) 100 % of control

CCc1ccccc1NC(=O)Oc1ccc(SC)cc1
inactive: dose: 100.0 mg/kg/injection, schedule: Q01DX001 (ip), vehicle: saline with Tween-80 102 % of control | [4] 97 % of control and 99 % of control | dose: 100.0 mg/kg/injection, schedule: Q04DX002 (ip), vehicle: saline with Tween-80 93 % of control and 94 % of control | dose: 200.0 mg/kg/injection, schedule: Q01DX001 (ip), vehicle: saline with Tween-80 98 % of control | [5] 97 % of control and 89 % of control | dose: 200.0 mg/kg/injection, schedule: Q04DX002 (ip), vehicle: saline with Tween-80 96 % of control and 97 % of control | dose: 400.0 mg/kg/injection, schedule: Q01DX001 (ip), vehicle: saline with Tween-80 93 % of control | dose: 400.0 mg/kg/injection, schedule: Q04DX002 (ip), vehicle: saline with Tween-80 96 % of control and 107 % of control | [6] 90 % of control

CCOc1cc(C=Nc2cc(Br)c(OC)c(Br)c2)ccc1N(CCCl)CCCl
inactive: dose: 4.0 mg/kg/injection, schedule: Q01DX009 (ip), vehicle: carboxymethylcellulose (CMC) 106 % of control | dose: 7.0 mg/kg/injection, schedule: Q01DX009 (ip), vehicle: carboxymethylcellulose (CMC) 115 % of control | dose: 8.9 mg/kg/injection, schedule: Q01DX001 (ip), vehicle: carboxymethylcellulose (CMC) 122 % of control | dose: 11.0 mg/kg/injection, schedule: Q01DX009 (ip), vehicle: carboxymethylcellulose (CMC) 109 % of control | dose: 17.0 mg/kg/injection, schedule: Q01DX009 (ip), vehicle: carboxymethylcellulose (CMC) 123 % of control | dose: 133.0 mg/kg/injection, schedule: Q01DX001 (ip), vehicle: carboxymethylcellulose (CMC) 122 % of control

NS(=O)(=O)c1ccc(NC(=S)NC(=O)/C=C/c2ccccc2)cc1
inactive: dose: 100.0 mg/kg/injection, schedule: Q01DX009 (sc), vehicle: olive oil, sesame oil, peanut oil 107 % of control | dose: 100.0 mg/kg/injection, schedule: Q04DX003 (sc), vehicle: olive oil, sesame oil, peanut oil 107 % of control | dose: 200.0 mg/kg/injection, schedule: Q01DX009 (sc), vehicle: olive oil, sesame oil, peanut oil 113 % of control | dose: 200.0 mg/kg/injection, schedule: Q04DX003 (sc), vehicle: olive oil, sesame oil, peanut oil 97 % of control | dose: 400.0 mg/kg/injection, schedule: Q01DX009 (sc), vehicle: olive oil, sesame oil, peanut oil 104 % of control | dose: 400.0 mg/kg/injection, schedule: Q04DX003 (sc), vehicle: olive oil, sesame oil, peanut oil 103 % of control

Nc1ccc2ncsc2c1
inactive: [4] 114 % of control | dose: 100.0 mg/kg/injection, schedule: Q04DX003 (ip), vehicle: saline with Tween-80 102 % of control | [5] 88 % of control | dose: 200.0 mg/kg/injection, schedule: Q04DX003 (ip), vehicle: saline with Tween-80 95 % of control | [6] 98 % of control

Cc1nnc(C(N)=O)c(=O)[nH]1
inactive: dose: 100.0 mg/kg/injection, schedule: Q01DX001 (ip), vehicle: Klucel (hydroxypropylcellulose) (HPC) 109 % of control | dose: 200.0 mg/kg/injection, schedule: Q01DX001 (ip), vehicle: Klucel (hydroxypropylcellulose) (HPC) 120 % of control | dose: 400.0 mg/kg/injection, schedule: Q01DX001 (ip), vehicle: Klucel (hydroxypropylcellulose) (HPC) 97 % of control

Cc1cc(Sc2ccccc2)c2c(C)ccc(C(C)C)cc1-2
inactive: dose: 100.0 mg/kg/injection, schedule: Q01DX001 (ip), vehicle: carboxymethylcellulose (CMC) 95 % of control | dose: 200.0 mg/kg/injection, schedule: Q01DX001 (ip), vehicle: carboxymethylcellulose (CMC) 97 % of control | dose: 400.0 mg/kg/injection, schedule: Q01DX001 (ip), vehicle: carboxymethylcellulose (CMC) 95 % of control

c1ccc(-c2nnc(N3CCCCC3)nc2-c2ccccc2)cc1
inactive: dose: 50.0 mg/kg/injection, schedule: Q01DX001 (ip), vehicle: saline 100 % of control | [7] 88 % of control | [8] 94 % of control

CCCCCC(O)C(C)C (stereo unspecified)
inactive: dose: 37.5 mg/kg/injection, schedule: Q04DX003 (ip), vehicle: saline 96 % of control | dose: 75.0 mg/kg/injection, schedule: Q04DX003 (ip), vehicle: saline 108 % of control | dose: 150.0 mg/kg/injection, schedule: Q04DX003 (ip), vehicle: saline 94 % of control

CCC(C)N=[N+]([O-])CC (stereo unspecified)
inactive: dose: 100.0 mg/kg/injection, schedule: Q01DX001 (ip), vehicle: acetone 101 % of control | dose: 200.0 mg/kg/injection, schedule: Q01DX001 (ip), vehicle: acetone 112 % of control | dose: 400.0 mg/kg/injection, schedule: Q01DX001 (ip), vehicle: acetone 91 % of control

Nc1ccc2c(c1)S(=O)(=O)c1cc(O)ccc1O2
inactive: [9] 98 % of control | dose: 100.0 mg/kg/injection, schedule: Q04DX003 (ip), vehicle: Klucel (hydroxypropylcellulose) (HPC) 102 % of control | dose: 200.0 mg/kg/injection, schedule: Q01DX009 (ip), vehicle: Klucel (hydroxypropylcellulose) (HPC) 95 % of control | dose: 200.0 mg/kg/injection, schedule: Q04DX003 (ip), vehicle: Klucel (hydroxypropylcellulose) (HPC) 97 % of control | dose: 400.0 mg/kg/injection, schedule: Q01DX009 (ip), vehicle: Klucel (hydroxypropylcellulose) (HPC) 96 % of control | dose: 400.0 mg/kg/injection, schedule: Q04DX003 (ip), vehicle: Klucel (hydroxypropylcellulose) (HPC) 102 % of control

Nc1ccc(N=Nc2c(Br)cc(S(N)(=O)=O)cc2Br)c(N)n1
inactive: [7] 102 % of control | [8] 100 % of control | [10] 94 % of control

CSc1nc(NC(=O)CCl)cc(NC(=O)CCl)n1
inactive: dose: 12.5 mg/kg/injection, schedule: Q01DX005 (ip), vehicle: saline 105 % of control | dose: 25.0 mg/kg/injection, schedule: Q01DX005 (ip), vehicle: saline 112 % of control

OCCC1CC1=C1CC1 (stereo unspecified)
inactive: dose: 50.0 mg/kg/injection, schedule: Q01DX009 (ip), vehicle: Klucel (hydroxypropylcellulose) (HPC) 101 % of control | [9] 98 % of control

NNC(=O)C1CC2C(=O)NNC(=O)C2C1C(=O)O (stereo unspecified)
inactive: [7] 102 % of control | [8] 107 % of control | [10] 113 % of control

CCOC(=O)C(C)(O)C1(Cl)CCC(C(C)(C)C)CC1 (stereo unspecified)
inactive: dose: 100.0 mg/kg/injection, schedule: Q04DX002 (ip), vehicle: saline 103 % of control | dose: 200.0 mg/kg/injection, schedule: Q04DX002 (ip), vehicle: saline 103 % of control | dose: 400.0 mg/kg/injection, schedule: Q04DX002 (ip), vehicle: saline 100 % of control
